Measurements reported in patent US20090209525A1, “ENABLING METHODS TO IDENTIFY ALLOSTERIC MODULATORS OF RECEPTOR ACTIVITY” (priority 2006, published 2009).
Substitutions are numbered along the chain they refer to. Read-outs that look alike come from different tables or passages of the source.

Columns and labels:
M1 W101A receptor [1] = target: T1, M1 W101A receptor (Rattus norvegicus, UniProt P08482, W101A); assay: R-SAT HTS on M1 W101A receptor; assay type: cell-based; conditions: compound at 3 μM, triplicate retest, activity over basal cellular response
T1 construct: expressed in transfected cells
T1 sequence (P08482 1-460 W101A): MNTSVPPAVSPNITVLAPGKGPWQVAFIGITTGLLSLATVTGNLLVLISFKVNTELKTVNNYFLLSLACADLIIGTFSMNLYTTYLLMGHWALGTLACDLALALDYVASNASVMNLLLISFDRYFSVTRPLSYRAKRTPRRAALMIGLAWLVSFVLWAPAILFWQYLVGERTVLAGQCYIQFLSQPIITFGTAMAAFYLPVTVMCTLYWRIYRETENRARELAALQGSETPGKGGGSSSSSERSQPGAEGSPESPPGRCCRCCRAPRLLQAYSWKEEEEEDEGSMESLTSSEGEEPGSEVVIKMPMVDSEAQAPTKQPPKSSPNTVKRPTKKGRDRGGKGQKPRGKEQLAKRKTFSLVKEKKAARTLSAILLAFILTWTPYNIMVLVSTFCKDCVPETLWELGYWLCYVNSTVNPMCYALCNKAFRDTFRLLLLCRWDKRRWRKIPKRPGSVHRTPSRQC
Description: (§1) NIH-3T3 cells were grown in 96-well tissue culture plates to 70 to 80% confluence in Dulbecco's modified essential media (DMEM) supplemented with 100 units/ml penicillin, 100 micrograms/ml streptomycin, 0.3 mg/ml L-glutamine (1% PSG, GIBCO) and 10% calf serum (Sigma-Aldrich). Cells were transfected for 18 h with DMEM containing 0.08 micrograms/ml receptor DNA and 0.3 micrograms/ml pSI-Bgal (Promega, Madison Wis.), 0.5% v/v Polyfect (Qiagen, Valencia Calif.). Medium was replaced with DMEM containing 1% PSG, 0.5% calf serum, 2% cyto-sf3 (Kemp Biotechnologies, Frederick, Md.), and varying concentrations of ligand. […] Cells were grown in a humidified atmosphere with 5% ambient CO2 for 5 days. Medium was removed from the plates, and beta-galactosidase activity was measured by the addition of o-nitrophenyl -d-galactopyranoside in phosphate-buffered saline with 5% Nonidet P-40.
Cells were contacted with over 280,000 compounds at a concentration of 3 μM.

M1 W101A receptor [2] = target: T1, M1 W101A receptor; assay: R-SAT HTS on M1 W101A receptor; assay type: cell-based; conditions: compound at 300 nM, triplicate retest, activity over basal cellular response
rat M1 Y381A receptor = target: T2, rat M1 Y381A receptor (Rattus norvegicus, UniProt P08482, Y381A); assay: R-SAT functional assay, Y381A mutant; assay type: cell-based
T2 construct: expressed in transfected cells; host or cells: NIH-3T3
T2 sequence (P08482 1-460 Y381A): T1 sequence (P08482 1-460 W101A) with A101W, Y381A
Description: (§2) Cells are co-transfected for 18 h with DMEM containing 0.08 micrograms/ml of an expression vector for the expression of the mutant receptor and 0.3 micrograms/ml pSI-Bgal (Promega, Madison Wis.), and 0.5% v/v Polyfect (Qiagen, Valencia Calif.), as recommended by the manufacturer. On day three, the medium is replaced with DMEM containing 1% PSG, 0.5% calf serum, 2% cyto-sf3 (Kemp Biotechnologies, Frederick, Md.), and varying concentrations of the compounds to be tested. Cells are grown in a humidified atmosphere with 5% ambient CO2 for 5 days. The media is removed from the plates, and beta-galactosidase activity is measured by the addition of o-nitrophenyl -d-galactopyranoside in phosphate-buffered saline with 5% Nonidet P-40. […] The following equation is fitted to the data using GraphPad Prism software (San Diego, Calif.):
as §1
(§3) Receptor Selection and Amplification (R-SAT™) Assays: R-SAT™ functional assays were carried out as follows. NIH-3T3 cells were grown in 96-well tissue culture plates to 70 to 80% confluence in Dulbecco's modified essential media (DMEM) supplemented with 100 units/ml penicillin, 100 micrograms/ml streptomycin, 0.3 mg/ml L-glutamine (1% PSG, GIBCO) and 10% calf serum (Sigma-Aldrich). Cells were transfected for 18 h with DMEM containing 0.08 micrograms/ml receptor DNA and 0.3 micrograms/ml pSI-Bgal (Promega, Madison Wis.), 0.5% v/v Polyfect (Qiagen, Valencia Calif.). The transfected cells were frozen away. Cells were thawed and added to 96 well plates with DMEM containing 1% PSG, 0.5% calf serum, 2% cyto-sf3 (Kemp Biotechnologies, Frederick, Md.), and varying concentrations of ligand.
(§4) In an effort to further characterize monoamine modulators, we used a panel of mutant muscarininc M1 receptors to analyze the activity and potency of orthosteric modulators and various allosteric modulators at those receptors.

[3] = target: T3, rat M1 wild-type receptors (Rattus norvegicus, UniProt P08482); assay: R-SAT functional assay, wild-type receptor; assay type: cell-based
T3 construct: expressed in transfected cells
T3 sequence (P08482 1-460): T1 sequence (P08482 1-460 W101A) with A101W
Description: as §2, §1, §3, §4

M1 Y381A receptor = target: T4, M1 Y381A receptor (Rattus norvegicus, UniProt P08482, Y381A); assay: R-SAT antagonism of muscarinic agonists, Y381A; assay type: cell-based; conditions: M1 YS81A as printed; maximal inhibition of NDMC (3 μM) response
T4 construct: expressed in transfected cells; host or cells: NIH-3T3
T4 sequence (P08482 1-460 Y381A): T1 sequence (P08482 1-460 W101A) with A101W, Y381A
Description: as §3

rat M1 W101A receptor = target: T5, rat M1 W101A receptor (Rattus norvegicus, UniProt P08482, W101A); assay: R-SAT functional assay, W101A mutant; assay type: cell-based; conditions: M1 W101A
T5 construct: expressed in transfected cells
T5 sequence (P08482 1-460 W101A): T1 sequence (P08482 1-460 W101A)
Description: as §2, §1, §3, §4

M1 Y381 mutant receptor = target: T6, M1 Y381 mutant receptor (Rattus norvegicus, UniProt P08482, Y381A); conditions: result in words; FIGS. 8A-8C
T6 sequence (P08482 1-460 Y381A): T1 sequence (P08482 1-460 W101A) with A101W, Y381A

[4] = Table 10, M1 Y381A, maximum response relative to AC-42
[5] = Table 10, M1 Wild-Type, maximum response relative to carbachol
[6] = Table 4, maximum response relative to xanomeline
[7] = Table 4, M1 Y381A, maximum response relative to xanomeline
[8] = Table 4, M1 wild type, maximum response relative to xanomeline

SMILES	3 μM Avg. (M1 W101A receptor [1])	300 nM Avg (M1 W101A receptor [2])	also measured
CCCOC1CCN(C[C@@H](C)CN2C(=O)COc3ccccc32)CC1.O=C(O)C(=O)O	4.63	4.14	–
CCCOC1CCN(CCCn2c(=O)ccc3ccccc32)CC1	4.65	3.90	–
CCCOC1CCN(C[C@@H](C)CN2C(=O)COc3ccccc32)CC1	4.51	4.15	–
CCCCC1CCN(C[C@@H](C)Cn2c(=O)ccc3ccccc32)CC1.O=C(O)C(O)C(O)C(=O)O	4.50	4.34	–
CCCOC1CCN(C[C@@H](C)CN2C(=O)CCc3ccccc32)CC1.O=C(O)C(=O)O	4.44	4.11	–
CCCOC1CCN(C[C@@H](C)Cn2c(=O)ccc3ccccc32)CC1.O=C(O)C(=O)O	4.37	4.29	–
CCCCC1CCN(CCCN2C(=O)CCc3cc(OC)ccc32)CC1.O=C(O)C(=O)O	4.19	3.32	–
CCCC=C1CCN(C[C@@H](C)CN2C(=O)COc3ccc(F)cc32)CC1.O=C(O)C(=O)O	4.17	3.81	–
CCCCC1CCN(CCCn2c(=O)ccc3cc(F)ccc32)CC1	3.85	3.81	–
CCCCC1CCN(C[C@@H](C)CN2C(=O)CCc3ccccc32)CC1.O=C(O)C(=O)O	3.74	3.93	–
CCCCC1CCN(CCn2c(=O)[nH]c3ccccc32)CC1	3.67	3.26	–
CCCCC1CCN(CCCN2C(=O)CCc3ccccc32)CC1.O=C(O)C(=O)O	3.60	3.13	–
CCCCC1CCN(C[C@@H](C)CN2C(=O)COc3ccccc32)CC1.O=C(O)C(=O)O	3.55	4.16	–
COCCC1CCN(CCCn2c(=O)sc3ccccc32)CC1.O=C(O)C(=O)O	3.35	2.87	–
CCCCC1CCN(CCCN2C(=O)CSc3ccccc32)CC1.O=C(O)C(=O)O	3.34	3.30	–
CCCCC1CCN(CCCN2C(=O)COc3ccccc32)CC1.O=C(O)C(=O)O	3.23	3.86	–
CC(C)COc1ccc(CC(=O)N(Cc2ccc(F)cc2)C2CCN(CCCN3C(=O)OC[C@@H]3C(C)C)CC2)cc1.O=C(O)C(=O)O	3.18	2.58	–
CCOCCC1CCN(CCCn2c(=O)[nH]c3ccccc32)CC1.O=C(O)C(F)(F)F	2.83	2.70	–
CCCCC1CCN(CCCn2c(=O)oc3c(Cl)cc(Cl)c(Cl)c32)CC1.O=C(O)C(=O)O	2.60	2.36	–
CCCCC1CCN(CCCN2C(=O)COc3ccc(C(C)=O)cc32)CC1	2.41	2.86	–
CN1CCN(C2=Nc3ccccc3Oc3ccc(Cl)cc32)CC1.O=C(O)CCC(=O)O [Loxapine]	–	–	EC50 (rat M1 Y381A receptor; Table 10, M1 Y381A, NA = non-active, read-out: pEC50 (converted)): 1260 nM; % Eff (rat M1 Y381A receptor; [4]): 165%; % Eff [3, 5]: 3%
C[N+]1(C)[C@@H]2C[C@@H](OC(=O)[C@H](CO)c3ccccc3)C[C@H]1[C@@H]1O[C@@H]12 [NMS]	–	–	inhib (M1 Y381A receptor): 36%
O=C1CCCN1CC#CCN1CCCC1 [Oxotremorine]	–	–	% Eff (rat M1 W101A receptor; [6]): 87%; % Eff (rat M1 W101A receptor; Table 10, maximum response relative to AC-42): 120%; EC50 (rat M1 W101A receptor; pEC50, Table 4): 3160 nM; EC50 (rat M1 W101A receptor; pEC50, Table 10): 2510 nM; EC50 (rat M1 Y381A receptor): 3980 nM; % Eff (rat M1 Y381A receptor; [7]): 8%; % Eff (rat M1 Y381A receptor; [4]): 23%; % Eff [3, 8]: 91%; % Eff [3, 5]: 91%; EC50 ([3]; pEC50, Table 4, M1 wild type): 79.4 nM; EC50 ([3]; pEC50, Table 10, M1 Wild-Type, NA = non-active): 31.6 nM
CCCCCCOc1nsnc1C1=CCCN(C)C1 [Xanomeline]	–	–	% Eff (rat M1 W101A receptor; [6]): 106%; % Eff (rat M1 Y381A receptor; [7]): 100%; % Eff [3, 8]: 100%
C[N+]1(C)[C@@H]2CC(OC(=O)[C@H](CO)c3ccccc3)C[C@H]1[C@@H]1O[C@@H]12 (some centres unmarked) [^3H-NMS, 1-[N-methyl-^3H]Scopolamine methyl chloride]	–	–	binding of ^3H-NMS to receptor (M1 Y381 mutant receptor): not to the Y381 mutant receptor
